Assay results: patent publication US11591596B2, “Compounds and compositions including phosphorothioated oligodeoxynucleotide, and methods of use thereof” (City of Hope, priority 2015, dated 2023)

Experiments:
[1] = tested on: CML (K562) and AML cell lines (KG1A, MV4-11, Molm13, NB4, OCI and HL60); experiment: Uptake in AML and CML cell lines, Cy3 by flow cytometry; type: cell-based, human; conditions: 4 hours
Procedure: FIGS. 3A-3G are flow cytometry histograms showing results of CpG-anti-miR-126 uptake in AML and CML cell lines. Cells were cultured with miR126-inhibitor-Cy3 (Cy3-200 nM0, human CD45 (Ab-200 nM) or Transferrin (TF-200 nM)-conjugated nanoparticles (NP) containing antagomiR-126-Cy3, CpG-miR126 inhibitor-Cy3 (CpG-Cy3-200 nM and 500 nM) for 4 hours, then uptake was analyzed by measuring Cy3 expression in these cells by flow cytometry. FIG. 3A is a histogram showing uptake in K562 cells. FIG. 3B is a histogram showing uptake in KG1A AML cells. FIG. 3C is a histogram showing uptake in MV4-11 AML cells. FIG. 3D is a histogram showing uptake in Molm13 AML cells. FIG. 3E is a histogram showing uptake in NB4 AML cells. FIG. 3F is a histogram showing uptake in OCI AML cells. FIG. 3G is a histogram showing uptake in HL60 AML cells.
CML (K562) (FIG. 3A) and AML cell lines (KG1A, MV4-11, Molm13, NB4, OCI and HL60) (FIGS. 3B-3G) were cultured with anti-miR126 inhibitor-Cy3 (Cy3-200 nM) alone, human CD45 (Ab-200 nM) or Transferrin (TF-200 nM)-conjugated nanoparticles (NP) containing anti-miR126-Cy3 or unformulated CpG-anti-miR126 inhibitor—Cy3 in two concentrations (200 nM and 500 nM) for 4 hours, the uptake was analyzed by measuring Cy3 expression in these cells by flow cytometry.

[2] = tested on: Mouse CML leukemia stem cells (LSC, Lin-Sca-1+c-kit+Fit3-CD150+CD48-); experiment: Apoptosis and cell growth of mouse CML leukemia stem cells; type: cell-based; conditions: combined with NIL, compared with CpG-SCR+NIL
Procedure: Mouse CML leukemia stem cells (LSC, Lin-Sca-1+c-kit+Fit3-CD150+CD48-) were sorted and treated with CpG-anti-miR-126 inhibitor or CpG-SCR (500 nM) for 48 hours, then furthered treated with miR126 inhibitor+NIL or SCR+NIL for 72 hours, then apoptosis and cell growth were measured.

[3] = tested on: miR-126; experiment: miR-126 expression in K562 and MV4-11 cells with miR-126 inhibitors or mimics; type: cell-based; conditions: 500 nM, 24 hours
Procedure: FIGS. 26A-26E. Effective knockdown of miR-126 with miR-126 inhibitors conjugated with CpG, GpC and PS, and effective over-expression with miR-126 mimics in K562 and MV4-11 cells. K562 and MV4-11 cells were treated with miR-126 inhibitors conjugated with CpG, GpC, PS (FIGS. 26A-26B) or miR-126 mimics (615, 616 and 617) (FIGS. 26C-26D) (500 nM) for 24 hours, and miR-126 expression was measured in these cells. […] FIG. 26E) Tabulation of sequence set forth herein.
Effective knockdown of miR-126 with miR-126 inhibitors conjugated with CpG, GpC and PS, and effective over-expression with miR-126 mimics in K562 and MV4-11 cells. K562 and MV4-11 cells were treated with miR-126 inhibitors conjugated with CpG, GpC, PS (FIGS. 26A-26B) or miR-126 mimics (615, 616 and 617) (FIGS. 26C-26D) (500 nM) for 24 hours, and miR-126 expression was measured in these cells.

[4] = tested on: normal and CML CD34+CD38− primitive progenitors; experiment: Cell cycling of CD34+CD38- cells by EDU/DAPi staining; type: cell-based, human; conditions: 500 nM, 72 hours
Procedure: FIGS. 9A-9D are a series of cell sorting plots showing increased cell cycle in CD34+CD38− cells after knockdown of […]. Normal (NL; FIGS. 9A-9B) and CML human CD34+CD38− cells (FIGS. 9C-9D) were sorted and then cultured with 500 nm CpG-miR126 inh-Cy3 or CpG-SCR control for 72 hours, and then cell cycling was analyzed by EDU/DAPi staining.
(§1) CML CD34+, CD34+CD38+ committed and CD34+CD38− primitive progenitors were cultured with CpG-scramble RNA (500 nM), CpG-anti-miR126 inhibitor (500 nM), CpG-scramble RNA (500 nM)+Nilotinib (NIL, 5 uM), and CpG-anti-miR126 inhibitor (500 nM)+NIL (5 uM) for 72 hours and then cell cycling and apoptosis were analyzed by EDU/DAPi and Annexin V/DAPi staining.

[5] = tested on: miR126; experiment: miR126 expression in CML CD34+CD38+ committed and CD34+CD38- primitive progenitors by q-RT-PCR; type: cell-based, human; conditions: 500 nM
Procedure: CML CD34+CD38+ committed and CD34+CD38− primitive progenitors were cultured with CpG-scramble RNA (500 nM) or CpG-miR126 inhibitor (500 nM) for 36 hours and then miR126 and RNU44 (control) expression in these cells were analyzed by q-RT-PCR. The miR126 expression levels were normalized to RNU44 and calculated by using the comparative 2^−ΔΔCt method.
as §1

For “5′ G*G*T GCA TCG ATG CAGG*G*G* G*G (SEQ ID NO: 1) xxxxx mCmGmC mAmUmU mAmUmU mAmCmU mCmAmC mGmGmU mAmCmG mA (SEQ ID NO: 17) 3′ [CpG-anti-miR126]”, the “internalization (Cy3 uptake)” value ([1]; 200 nM and 500 nM, no transfection reagents) was “quickly and dose-dependently internalized”, the “level of internalization compared with other oligonucleotides including NP-formulated anti-miR126 inhibitor” value ([1]; absence of any transfection reagents) was “exceeded that of all other oligonucleotides” and the “apoptosis of LSC” value [2] was “significantly increased apoptosis”. For the same substance, the “cell growth of LSC” value [2] was “significant reduction of cell growth”, the “miR-126 expression (knockdown by inhibitors)” value [3] was “very effective in reducing miR-126” and the cell cycling [4] was “Increased cell cycling”. The “reduction of miR126 expression” value [5] was “More than 90%”.
